Literature values, collected in patent EP4640075A1, “ORAL POUCHED PRODUCT WITH SELF-EMULSIFYING DELIVERY SYSTEM” (Nicoventures Trading Limited, priority 2024, dated 2025).

Settings: Values obtained from PubChem or calculated

Substance: tocopherol succinate
- log(P)*: 10.2
